Read-outs that look alike come from different tables or passages of the source.

The target in assay [1] is T1, human adrenergic beta2 receptor (Homo sapiens, UniProt P07550).
T1 construct: purchased Perkin Elmer; host or cells: Sf9 cells (overexpressed; membranes)
Briefly: Human adrenergic β2 receptor binding assay (3H-CGP12177, Sf9 cell membranes). How it is done: Typically said beta2-adrenergic binding assay comprises: • a) providing a membrane suspension comprising Sf9 cells in an assay buffer • b) incubating with 3H-CGP12177 in plates previously treated with assay buffer containing a coating agent • c) measuring binding of test compound in the presence of propanolol • d) maintaining incubation • e) terminating the binding reactions • f) determining the affinity of the test compound for the receptor by repeating steps a) to e) using multiple different test compound concentrations. • g) calculating an IC50 using the four parameters-log equation.
Test 1: Human Adrenergic β1 and β2 Receptor Binding Assays
The study of binding to human adrenergic beta1 and beta2 receptors was performed using commercial membranes prepared from Sf9 cells where they are overexpressed (Perkin Elmer). The membrane suspensions (16 μg/well for beta1 and 5 μg/well for beta2) in assay buffer (75 mM Tris/HCl with 12.5 mM MgCl2 and 2 mM EDTA pH=7.4) were incubated with 0.14 or 0.6 nM of 3H-CGP12177 (Amersham) for beta 1 and beta 2 receptors respectively in a final volume of 250 μl, in GFC Multiscreen 96 well plates (Millipore) previously treated with assay buffer containing 0.3% PEI (Sigma). Non specific binding was measured in the presence of 1 μM propanolol. Incubation was maintained for 60 minutes at room temperature and with gentle shaking. The binding reactions were terminated by filtration and washing with 2.5 volumes of Tris/HCl 50 mM pH=7.4. The affinity of each test compound to the receptor was determined by using ten different concentrations ran in duplicate. IC50s were calculated using Activity Base software from IDBS and the four parameters-log equation.

For assay [2], the target named is T2, human muscarinic M3 receptor (Homo sapiens, UniProt P20309).
T2 construct: purchased Perkin Elmer; host or cells: CHO-K1 cells (membranes)
T2 sequence (P20309 whole entry): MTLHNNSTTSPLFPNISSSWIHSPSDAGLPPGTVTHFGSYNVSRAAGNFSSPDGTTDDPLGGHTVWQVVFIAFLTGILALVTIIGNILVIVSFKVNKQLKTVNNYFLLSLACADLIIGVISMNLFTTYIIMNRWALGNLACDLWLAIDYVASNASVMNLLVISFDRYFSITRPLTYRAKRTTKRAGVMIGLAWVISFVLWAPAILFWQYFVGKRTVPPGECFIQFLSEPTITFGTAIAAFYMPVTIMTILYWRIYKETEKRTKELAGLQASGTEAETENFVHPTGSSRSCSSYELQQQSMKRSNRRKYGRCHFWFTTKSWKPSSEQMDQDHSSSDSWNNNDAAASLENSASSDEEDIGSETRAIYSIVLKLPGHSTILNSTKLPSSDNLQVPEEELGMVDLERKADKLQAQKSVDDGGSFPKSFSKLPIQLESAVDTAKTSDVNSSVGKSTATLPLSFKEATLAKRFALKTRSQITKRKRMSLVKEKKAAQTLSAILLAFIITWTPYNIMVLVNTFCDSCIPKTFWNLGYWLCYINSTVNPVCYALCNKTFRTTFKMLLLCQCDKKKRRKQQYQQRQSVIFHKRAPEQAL
Kind of assay: Human muscarinic M3 receptor binding assay ([3H]-NMS, CHO-K1 cell membranes). On the procedure: Test 2: Human Muscarinic M1, M2, M3, M4 and M5 Receptors Binding Assays
The study of binding to human muscarinic M1, M2, M3, M4 and M5 receptors was performed using commercial membranes (Perkin Elmer) prepared from CHO-K1 cells. Radioligand binding experiments were conducted in 96 polypropylene well plates in a total volume of 200 μl. All reagents were dissolved in assay binding buffer (PBS with calcium and magnesium, SIGMA), except compounds that were dissolved in DMSO 100%. Non-specific binding (NSB) was measured in the presence of 1 μM atropine. [3H]-NMS was used as the radioligand at a concentration of 1 nM for M2, M3 and M5 and 0.3 nM for M1 and M4. [3H]-NMS and antagonists were incubated with membranes that express human muscarinic receptors M1, M2, M3, M4 and M5 at concentrations of 8.1, 10, 4.9, 4.5 and 4.9 μg/well, respectively.
After an incubation period of two hours with gentle shaking, 150 μl of the reaction mix were transferred to 96 GF/C filter plates (Millipore), previously treated with wash buffer (Tris 50 mM; NaCl 100 mM; pH:7.4), containing 0.05% PEI (Sigma) during one hour. Bound and free [3H]-NMS were separated by rapid vacuum filtration in a manifold from Millipore and washed four times with ice cold wash buffer. After drying 30 min, 30 μl of OPTIPHASE Supermix were added to each well and radioactivity quantified using a Microbeta microplate scintillation counter.
The affinity of each test compound to the receptors was determined by using ten different concentrations ran in duplicate. IC50s were calculated using Activity Base software from IDBS and the four parameters-log equation.

[3] abbreviates: 0.6 nM 3H-CGP12177, Sf9 membranes 5 μg/well, 60 min room temperature, read-out: Binding, IC50, nM β2.
Where [4] appears, read: 1 nM [3H]-NMS, CHO-K1 membranes 4.9 μg/well, two hours incubation, read-out: Binding, IC50, nM M3.

In general, IC50 refers to the point on the concentration scale where inhibition reaches its midpoint. As for `O=C(Nc1cc(CCCCn2nc3ccc(CNC[C@H](O)c4ccc(O)c5[nH]c(=O)ccc45)cc3n2)ccc1-c1ccccc1)O[C@H]1CN2CCC1CC2` [Example 19, (3R)-1-azabicyclo[2.2.2]oct-3-yl(4-{4-[5-({[(2R)-2-hydroxy-2-(8-hydroxy-2-oxo-1,2-dihydroquinolin-5-yl)ethyl]amino}methyl)-2H-1,2,3-benzotriazol-2-yl]butyl}biphenyl-2-yl)carbamate], the values for the IC50 in assay [1] and in assay [2] were 6.6 nM and 0.19 nM, respectively.

For “trans-4-aminocyclohexyl[4-(4-{[trans-4-({[(2R)-2-hydroxy-2-(8-hydroxy-2-oxo-1,2-dihydroquinolin-5-yl)ethyl]amino}methyl)cyclohexyl]amino}-4-oxobutyl)biphenyl-2-yl]carbamate dihydrochloride [Example 44]”, the IC50 in assay [1] (setting [3]) was determined as 6.3 nM; in assay [2] (setting [4]) it was 1.2 nM.

For “1-azabicyclo[2.2.2]oct-4-yl(4-{3-[{[2-chloro-4-({[(2R)-2-hydroxy-2-(8-hydroxy-2-oxo-1,2-dihydroquinolin-5-yl)ethyl]amino}methyl)-5-methoxyphenoxy]acetyl}(methyl)amino]propyl}biphenyl-2-yl)carbamate dihydrofluoride [Example 66]”, the IC50 in assay [1] (setting [3]) stood at 9.6 nM; in assay [2] (setting [4]), 0.99 nM.

Regarding “(3R)-1-azabicyclo[2.2.2]oct-3-yl(4-{4-[6-({[(2R)-2-hydroxy-2-(8-hydroxy-2-oxo-1,2-dihydroquinolin-5-yl)ethyl]amino}methyl)-2-oxo-1,3-benzoxazol-3(2H)-yl]butyl}biphenyl-2-yl)carbamate dihydrofluoride [Example 7]”, the IC50 in assay [1] (setting [3]) worked out at 30 nM; in assay [2] (setting [4]), 0.5 nM.

Turning to “trans-4-aminocyclohexyl[4-(5-{[4-({[(2R)-2-hydroxy-2-(8-hydroxy-2-oxo-1,2-dihydroquinolin-5-yl)ethyl]amino}methyl)phenyl]amino}-5-oxopentyl)biphenyl-2-yl]carbamate dihydrochloride [Example 37]”, the IC50 was determined as 18 nM in assay [1] (setting [3]) and 1.2 nM in assay [2] (setting [4]).

Source of the values: US9518050B2, “Cyclohexyl and quinuclidinyl carbamate derivatives having β2 adrenergic agonist and M3 muscarinic antagonist activity” (priority 2012, dated 2016).
